One experiment has as its system PC3 cells. Nature of the experiment: XTT assay for cell viability, PC3 cells. In kind it is cell-based, human. The following applies: Homo sapiens, PC-3, cell viability. As for the experimental part:
Using a commercial kit from Sigma Aldrich (Catalog #X34251) and following its protocol, PC3 cells in the log phase of growth were employed and seeded at an optimal density of 1000 cell/well on to 96 well plates and incubated for 24 h followed by the addition of compounds of formula (I) in serial dilutions. Compound dilutions were made in DMSO. The cells were incubated with the compounds of formula (I) for 96 h and XTT tetrazolium dye (Sigma, USA) was subsequently added and incubated at 37° C. After the color formation, absorbance was measured at 465 nm in a Spectramax® Gemini spectrophotometer. EC50 values were calculated using a sigmoidal dose response curve fit in GraphPad Prism® v5 software. The tested compounds of formula (I) which caused inhibition of PC3 cell proliferation as determined by this assay protocol are shown in Table 2.

For experiment [1], the target named is T1, PI3Kα (wild-type), P110/P85α (Homo sapiens, UniProt P42336).
T1 construct: made in house; host or cells: SF9 insect cells
As to the kind of experiment: PI3 Kinase TR-FRET assay, PI3Kα (wild-type). It counts as biochemical. Summed up:
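Sf9-expressed His-purified P110/P85α (5 ng) preincubated 60 min RT with compound and PIP2 in buffer with 40 mM MgCl2, 5 mM DTT; reaction started with ATP (PIP2 and ATP both 10 μM), 30 min RT. PIP3 detected by TR-FRET displacement, 665/615 nm ratio; IC50 from dose-response curves.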

Another experiment has as its target T2, mTOR kinase (Homo sapiens, UniProt P42345).
T2 construct: purchased Millipore, USA
Nature of the experiment: mTOR kinase TR-FRET assay. It counts as biochemical. The following applies: read-out: mTO R. In short, it runs like this:
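Compounds preincubated 60 min with mTOR (5 ng) in HEPES pH 7.5, EGTA, MnCl2; ULight-p70 S6K Thr389 peptide (50 nM) and ATP (20 μM) then added, 60 min at room temperature. EDTA-stopped, Eu-anti-phospho antibody detection by TR-FRET (665/615 nm); IC50 from variable-slope sigmoidal fit.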

SMILES strings stand for the structures.

T1 sequence (P42336 whole entry): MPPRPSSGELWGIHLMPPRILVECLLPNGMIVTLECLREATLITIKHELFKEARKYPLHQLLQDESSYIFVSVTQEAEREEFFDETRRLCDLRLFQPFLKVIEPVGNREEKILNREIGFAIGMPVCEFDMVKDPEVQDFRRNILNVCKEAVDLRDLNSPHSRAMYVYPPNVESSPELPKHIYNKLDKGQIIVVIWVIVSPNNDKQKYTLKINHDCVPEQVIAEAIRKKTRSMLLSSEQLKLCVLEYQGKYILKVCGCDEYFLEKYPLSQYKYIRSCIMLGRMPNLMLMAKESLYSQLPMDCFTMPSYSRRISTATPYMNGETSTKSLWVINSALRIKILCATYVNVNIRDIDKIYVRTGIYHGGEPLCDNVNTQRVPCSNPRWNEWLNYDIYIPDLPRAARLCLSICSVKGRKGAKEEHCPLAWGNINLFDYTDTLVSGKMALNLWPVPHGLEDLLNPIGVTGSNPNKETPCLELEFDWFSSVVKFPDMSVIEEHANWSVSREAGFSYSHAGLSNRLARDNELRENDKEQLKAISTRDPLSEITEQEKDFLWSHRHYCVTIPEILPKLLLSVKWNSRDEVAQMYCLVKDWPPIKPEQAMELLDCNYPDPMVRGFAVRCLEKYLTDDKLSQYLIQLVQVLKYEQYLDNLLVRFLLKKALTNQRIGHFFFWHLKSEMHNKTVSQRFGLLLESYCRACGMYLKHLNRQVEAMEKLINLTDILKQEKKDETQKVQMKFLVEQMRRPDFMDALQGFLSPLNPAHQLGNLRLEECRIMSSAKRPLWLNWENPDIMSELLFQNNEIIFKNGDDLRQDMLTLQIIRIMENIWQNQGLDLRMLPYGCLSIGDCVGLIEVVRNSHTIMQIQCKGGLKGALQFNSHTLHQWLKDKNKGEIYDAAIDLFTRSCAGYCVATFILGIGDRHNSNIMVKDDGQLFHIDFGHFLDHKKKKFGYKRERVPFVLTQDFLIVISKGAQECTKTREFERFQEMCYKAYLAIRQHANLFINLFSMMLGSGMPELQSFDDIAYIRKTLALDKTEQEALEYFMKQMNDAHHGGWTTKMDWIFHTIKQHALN
T1 sequence (P27986 whole entry partner): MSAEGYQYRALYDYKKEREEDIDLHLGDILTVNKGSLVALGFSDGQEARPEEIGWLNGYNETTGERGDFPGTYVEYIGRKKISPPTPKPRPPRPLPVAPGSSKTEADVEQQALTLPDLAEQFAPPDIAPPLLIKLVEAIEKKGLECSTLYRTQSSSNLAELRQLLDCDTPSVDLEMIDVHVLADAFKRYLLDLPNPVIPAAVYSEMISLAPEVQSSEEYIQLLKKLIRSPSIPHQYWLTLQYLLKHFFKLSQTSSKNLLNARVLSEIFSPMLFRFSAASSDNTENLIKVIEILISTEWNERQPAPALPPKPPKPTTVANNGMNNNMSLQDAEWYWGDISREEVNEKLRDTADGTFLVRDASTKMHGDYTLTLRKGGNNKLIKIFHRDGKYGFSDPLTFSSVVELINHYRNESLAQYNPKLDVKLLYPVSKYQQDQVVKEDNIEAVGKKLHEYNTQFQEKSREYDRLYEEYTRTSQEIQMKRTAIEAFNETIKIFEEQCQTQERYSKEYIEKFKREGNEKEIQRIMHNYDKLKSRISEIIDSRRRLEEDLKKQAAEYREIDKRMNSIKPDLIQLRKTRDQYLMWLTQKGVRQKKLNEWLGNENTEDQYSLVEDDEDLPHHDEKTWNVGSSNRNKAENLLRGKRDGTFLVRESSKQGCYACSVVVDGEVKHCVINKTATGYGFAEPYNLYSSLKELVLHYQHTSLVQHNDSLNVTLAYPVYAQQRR

For `CN(C)C(=O)c1ccc(NC(=O)Nc2ccc(-c3nc(N4CCOCC4)c4cccc(-c5cccc(O)c5)c4n3)cc2)cc1` [Example 5, 4-(3-{4-[8-(3-Hydroxy-phenyl)-4-morpholin-4-yl-quinazolin-2-yl]-phenyl}-ureido)-N,N-dimethyl-benzamide], the IC50 was under 100 nM in the experiment with PC3 cells, 50 to 200 nM in experiment [1] and under 50 nM at mTOR kinase.
For `CN(C)C(=O)c1ccc(NC(=O)Nc2ccc(-c3nc(N4CCOCC4)c4cccc(-c5ccc(F)nc5)c4n3)cc2)cc1` [Example 6, 4-(3-{4-[8-(6-Fluoro-pyridin-3-yl)-4-morpholin-4-yl-quinazolin-2-yl]-phenyl}-ureido)-N,N-dimethyl-benzamide], in that order: 100 to 500 nM, 50 to 200 nM and under 50 nM.
For `CN(C)C(=O)c1ccc(NC(=O)Nc2ccc(-c3nc(N4CCOCC4)c4ncc(-c5cncnc5)cc4n3)cc2)cc1` [Example 9, N,N-Dimethyl-4-{3-[4-(4-morpholin-4-yl-7-pyrimidin-5-yl-pyrido[3,2-d]-pyrimidin-2-yl)-phenyl]-ureido}-benzamide], the figures for the IC50 (in the experiment on PC3 cells; in experiment [1]; on mTOR kinase) were under 100 nM, under 50 nM and under 50 nM, respectively.
As to `CC(=O)Nc1ccc(NC(=O)Nc2ccc(-c3nc(N4CCOCC4)c4ccc(-c5ccc(C)o5)cc4n3)cc2)cc1` [Example 17, N-(4-(3-(4-(7-(5-methylfuran-2-yl)-4-morpholino-quinazolin-2-yl)phenyl)ureido)phenyl)acetamide], the IC50 with PC3 cells lay in the range of 100 to 500 nM; in experiment [1] it was 50 to 200 nM; on mTOR kinase, 50 to 200 nM.
Take `CN(C)C(=O)c1ccc(NC(=O)Nc2ccc(-c3nc(N4CCOCC4)c4ccc(-c5cccnc5F)cc4n3)cc2)cc1` [Example 21, 4-(3-{4-[7-(2-fluoro-pyridin-3-yl)-4-morpholin-4-yl-quinazolin-2-yl]-phenyl}-ureido)-N,N-dimethyl-benzamide]: the IC50 in the experiment with PC3 cells was 100 to 500 nM; in experiment [1], 50 to 200 nM; on mTOR kinase it was under 50 nM.
The like results for `CN(C)C(=O)c1ccc(NC(=O)Nc2ccc(-c3nc(N4CCOCC4)c4ccc(-c5cccc(NS(C)(=O)=O)c5)cc4n3)cc2)cc1` [Example 23, 4-(3-{4-[7-(3-methanesulfonylamino-phenyl)-4-morpholin-4-yl-quinazolin-2-yl]-phenyl}-ureido)-N,N-dimethyl-benzamide] were, in that order, 501 to 5000 nM, under 50 nM and 50 to 200 nM.
The like results for `CS(=O)(=O)c1cccc(-c2ccc3c(N4CCOCC4)nc(-c4ccc(NC(=O)Nc5ccc(C(N)=O)cc5)cc4)nc3c2)c1` [Example 25, 4-(3-{4-[7-(3-methanesulfonyl-phenyl)-4-morpholin-4-yl-quinazolin-2-yl]-phenyl}-ureido)-benzamide] were, in that order, 501 to 5000 nM, 50 to 200 nM and 50 to 200 nM.
For `CN1CCN(C(=O)c2ccc(NC(=O)Nc3ccc(-c4nc(N5CCOCC5)c5ccc(-c6cccnc6F)cc5n4)cc3)cc2)CC1` [Example 26, 1-{4-[7-(2-fluoro-pyridin-3-yl)-4-morpholin-4-yl-quinazolin-2-yl]-phenyl}-3-[4-(4-methyl-piperazine-1-carbonyl)-phenyl]-urea], in that order: under 100 nM, under 50 nM and under 50 nM.
On to `CN1CCN(C(=O)c2ccc(NC(=O)Nc3ccc(-c4nc(N5CCOCC5)c5ccc(-c6cnn(C)c6)cc5n4)cc3)cc2)CC1` [Example 27, 1-[4-(4-methyl-piperazine-1-carbonyl)-phenyl]-3-{4-[7-(1-methyl-1H-pyrazol-4-yl)-4-morpholin-4-yl-quinazolin-2-yl]-phenyl}-urea], for which the results for the IC50 (in the experiment with PC3 cells; in experiment [1]; at mTOR kinase) were under 100 nM, 50 to 200 nM and under 50 nM, respectively.
For `CN(C)C(=O)c1ccc(NC(=O)Nc2ccc(-c3nc(N4CCOCC4)c4ccc(-c5cccnc5F)cc4n3)cc2)cn1` [Example 28, 5-(3-{4-[7-(2-fluoro-pyridin-3-yl)-4-morpholin-4-yl-quinazolin-2-yl]-phenyl}-ureido)-pyridine-2-carboxylic acid dimethylamide], in that order: under 100 nM, 50 to 200 nM and under 50 nM.
For `CN(C)C(=O)c1ccc(NC(=O)Nc2ccc(-c3nc(N4CCOCC4)c4cc(F)c(-c5cccnc5)cc4n3)cc2)cc1` [Example 29, 4-{3-[4-(6-fluoro-4-morpholin-4-yl-7-pyridin-3-yl-quinazolin-2-yl)-phenyl]-ureido}-N,N-dimethyl-benzamide], in that order: under 100 nM, under 50 nM and under 50 nM.
For `CN(C)C(=O)c1ccc(NC(=O)Nc2ccc(-c3nc(N4CCOCC4)c4cc(F)c(-c5cncnc5)cc4n3)cc2)cc1` [Example 30, 4-{3-[4-(6-fluoro-4-morpholin-4-yl-7-pyrimidin-5-yl-quinazolin-2-yl)-phenyl]-ureido}-N,N-dimethyl-benzamide], in that order: under 100 nM, under 50 nM and under 50 nM.
With `CN(C)C(=O)c1ccc(NC(=O)Nc2ccc(-c3nc(N4CCOCC4)c4ccc(-c5cccc(S(C)(=O)=O)c5)cc4n3)cc2)cn1` [Example 31, 5-(3-{4-[7-(3-methanesulfonyl-phenyl)-4-morpholin-4-yl-quinazolin-2-yl]-phenyl}-ureido)-pyridine-2-carboxylic acid dimethylamide], the IC50 was 100 to 500 nM in the experiment with PC3 cells, 50 to 200 nM in experiment [1] and under 50 nM on mTOR kinase.
The like results for `CN1CCN(C(=O)c2ccc(NC(=O)Nc3ccc(-c4nc(N5CCOCC5)c5ccc(-c6cccc(S(C)(=O)=O)c6)cc5n4)cc3)cc2)CC1` [Example 32, 1-(4-(4-methylpiperazine-1-carbonyl)phenyl)-3-(4-(7-(3-(methylsulfonyl)phenyl)-4-morpholino-quinazolin-2-yl)phenyl)urea] were, in that order, 501 to 5000 nM, under 50 nM and under 50 nM.
The like results for `CN(C)C(=O)c1ccc(NC(=O)Nc2ccc(-c3nc(N4CCOCC4)c4ccc(-c5cncc(S(C)(=O)=O)c5)cc4n3)cc2)cc1` [Example 34, 4-(3-{4-[7-(5-methanesulfonyl-pyridin-3-yl)-4-morpholin-4-yl-qinazolin-2-yl]-phenyl}-ureido)-N,N-dimethyl-benzamide] were, in that order, under 100 nM, under 50 nM and under 50 nM.
Turning to `CN(C)C(=O)c1ccc(NC(=O)Nc2ccc(-c3nc(N4CCOCC4)c4cc(F)c(-c5cccc(S(C)(=O)=O)c5)cc4n3)cc2)cc1` [Example 36, 4-(3-{4-[6-fluoro-7-(3-methanesulfonyl-phenyl)-4-morpholin-4-yl-quinazolin-2-yl]-phenyl}-ureido)-N,N-dimethyl-benzamide], the results for the IC50 (with PC3 cells; in experiment [1]; at mTOR kinase) were under 100 nM, under 50 nM and under 50 nM, respectively.
With `CN1CCN(C(=O)c2ccc(NC(=O)Nc3ccc(-c4nc(N5CCOCC5)c5ccc(-c6ccsc6)cc5n4)cc3)cc2)CC1` [Example 37, 1-[4-(4-methyl-piperazine-1-carbonyl)-phenyl]-3-[4-(4-morpholin-4-yl-7-thiophen-3-yl-quinazolin-2-yl)-phenyl]-urea], the IC50 in the experiment on PC3 cells fell in the range of 100 to 500 nM; in experiment [1] it was 50 to 200 nM; at mTOR kinase it was 50 to 200 nM.

Source of the values: US9115092B2, “Substituted quinazoline and pyrido-pyrimidine derivatives” (Asana Biosciences, LLC, priority 2010, dated 2015).
